Reference: US10556907B2 (AbbVie Inc., priority 2015, dated 2020)

What was measured:
Test in all cases: Method 1: intracellular Ca2+ release (FLIPR, Calcium 5) in recombinant CHO-K1 cells
Format in all cases: cell-based
human S1PR1 receptor = target: T1, human S1PR1 receptor (Homo sapiens, UniProt P21453); conditions: (1): determined with method 1; read-out: S1P1 EC50
T1 construct: host or cells: CHO-K1
Method: (§1) Agonistic activity was measured using two different methods, described below.
(§2) Method 1. Intracellular Ca^2+ Release
(§3) Agonist potency and intrinsic activity was assessed by measurement of intracellular Ca^2+ release. Recombinant CHO-K1 cells (Euroscreen, Brussels, Belgium) expressing human S1PR5, S1PR1, S1PR3 or S1PR4 receptors, aequorin, and GTP binding protein Gq/i5 were cultured using a medium containing nutrient mixture F-12 Ham (Sigma-Aldrich) with 10% FBS, and 100 μg/mL gentamicin and equilibrated at 5% CO2.
(§4) 15.000 cells in 20 μL medium were seeded into Biocoat poly-D-Lysine coated 384 well plates (Becton Dickinson #35-6663) and grown to 95% confluency after 24 h.
(§5) Culture medium was replaced by an assay buffer consisting of HBBS with Ca^2+ and Mg^2+ (Invitrogen #14025-050), 20 mmol/L Hepes (Sigma-Aldrich #H-3375), 2.5 mmol/L probenecid (Sigma-Aldrich #P-8761, and 0.1% BSA (Sigma-Aldrich #A-7030) pH 7.4. The Calcium 5 no-wash FLIPR assay kit (Molecular Devices #5000625) was performed as described in the kit instructions. Cells were incubated with Calcium 5 dye for 1 h at 37° C., 5% CO2 in the dark. After 45 min adaptation to RT assessment of agonist stimulation of intracellular Ca^2+ release was performed by addition of test compounds at concentrations obtained by serial dilution. Phospho-fingolimod was used as positive control. Antagonists were pre-incubated for 10 min with cells before addition of the agonist (phospho-fingolimod at EC80). Measurements were performed using a fluorometric imaging plate reader FLIPR® tetra (Molecular Devices). Agonist at the human S1P receptors were characterized by deducing EC50 (potency) values from a nonlinear fit to the measured fluorescence raw data after normalization to the reference agonist (phospho-fingolimod) curve.

human S1PR4 receptor = target: T2, human S1PR4 receptor (Homo sapiens, UniProt O95977); conditions: (1): determined with method 1; read-out: S1P4 EC50
T2 construct: host or cells: CHO-K1
T2 sequence (O95977 1-384): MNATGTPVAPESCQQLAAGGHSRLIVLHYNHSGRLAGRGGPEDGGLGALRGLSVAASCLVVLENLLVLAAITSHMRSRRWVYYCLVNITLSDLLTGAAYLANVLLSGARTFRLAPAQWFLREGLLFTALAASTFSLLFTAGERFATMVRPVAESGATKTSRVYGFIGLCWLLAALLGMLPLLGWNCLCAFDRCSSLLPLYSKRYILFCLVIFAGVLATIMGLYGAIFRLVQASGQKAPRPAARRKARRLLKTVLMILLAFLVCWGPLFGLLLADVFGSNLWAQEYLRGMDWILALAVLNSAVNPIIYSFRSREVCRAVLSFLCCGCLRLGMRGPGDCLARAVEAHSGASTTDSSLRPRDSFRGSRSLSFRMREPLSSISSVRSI
Method: as §1, §2, §3, §4, §5

human S1PR5 receptor = target: T3, human S1PR5 receptor (Homo sapiens, UniProt Q9H228); conditions: agonist potency, determined with method 1 (symbols A-D); read-out: S1P5 EC50 range
T3 construct: host or cells: CHO-K1
T3 sequence (Q9H228 whole entry): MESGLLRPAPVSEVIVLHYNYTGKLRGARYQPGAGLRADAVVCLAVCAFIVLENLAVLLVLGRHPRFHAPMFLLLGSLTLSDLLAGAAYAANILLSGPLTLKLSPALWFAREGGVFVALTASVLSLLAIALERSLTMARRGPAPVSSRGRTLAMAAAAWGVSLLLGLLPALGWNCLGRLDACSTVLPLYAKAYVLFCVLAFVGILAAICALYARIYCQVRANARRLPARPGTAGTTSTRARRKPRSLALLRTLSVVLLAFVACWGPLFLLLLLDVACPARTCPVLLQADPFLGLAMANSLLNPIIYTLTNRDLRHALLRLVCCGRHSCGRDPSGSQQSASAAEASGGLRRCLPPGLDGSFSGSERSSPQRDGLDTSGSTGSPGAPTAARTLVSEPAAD
Method: as §1, §2, §3, §4, §5

human S1PR3 receptor = target: T4, human S1PR3 receptor (Homo sapiens, UniProt Q99500); conditions: (1): determined with method 1; read-out: S1P3 EC50
T4 construct: host or cells: CHO-K1
T4 sequence (Q99500 whole entry): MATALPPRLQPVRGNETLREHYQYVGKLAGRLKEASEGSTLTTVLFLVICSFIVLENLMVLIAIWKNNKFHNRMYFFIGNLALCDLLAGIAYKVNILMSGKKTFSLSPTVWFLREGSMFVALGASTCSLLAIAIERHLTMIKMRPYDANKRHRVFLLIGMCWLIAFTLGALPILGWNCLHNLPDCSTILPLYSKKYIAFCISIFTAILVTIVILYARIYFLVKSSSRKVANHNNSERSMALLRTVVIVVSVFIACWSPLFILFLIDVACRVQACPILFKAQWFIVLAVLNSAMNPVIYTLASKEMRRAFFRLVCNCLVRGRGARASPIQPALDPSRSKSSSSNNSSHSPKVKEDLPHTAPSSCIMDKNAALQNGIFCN
Method: as §1, §2, §3, §4, §5

T1 sequence (P21453 whole entry): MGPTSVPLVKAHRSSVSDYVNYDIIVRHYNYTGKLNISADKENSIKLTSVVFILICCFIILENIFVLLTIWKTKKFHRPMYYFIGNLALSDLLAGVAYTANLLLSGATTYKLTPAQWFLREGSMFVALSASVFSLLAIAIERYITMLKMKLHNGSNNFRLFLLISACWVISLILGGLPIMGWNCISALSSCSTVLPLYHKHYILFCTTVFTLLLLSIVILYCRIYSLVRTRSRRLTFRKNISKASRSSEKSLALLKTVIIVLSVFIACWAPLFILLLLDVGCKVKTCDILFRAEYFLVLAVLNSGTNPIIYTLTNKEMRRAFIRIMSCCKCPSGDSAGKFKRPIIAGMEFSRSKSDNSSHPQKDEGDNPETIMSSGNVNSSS

Compound | EC50 (human S1PR1 receptor) [µM] | EC50 (human S1PR4 receptor) [µM] | EC50 (human S1PR5 receptor) [µM] | EC50 (human S1PR3 receptor) [µM]
C[C@H](CC(=O)O)CN1CCc2nc(-c3ccc(C(F)(F)Cc4ccc(Cl)cc4)cc3)ncc2C1 (single isomer, unassigned) [Compound 294, 4-(2-(4-(2-(4-chlorophenyl)-1,1-difluoroethyl)phenyl)-7,8-dihydropyrido[4,3-d]pyrimidin-6(5H)-yl)-3-methylbutanoic acid] | > 1 | > 1 | 0.1 to 1 | 
O=C(O)CC1CC(N2CCc3nc(-c4ccc(OCc5ccc(Cl)c(Cl)c5)cc4)ncc3C2)C1 (stereo not drawn) [Compound 4, 2-(3-(2-(4-((3,4-dichlorobenzyl)oxy)phenyl)-7,8-dihydropyrido[4,3-d]pyrimidin-6(5H)-yl)cyclobutyl)acetic acid] | > 1 | > 1 | 0.1 to 1 | 
Cc1cc(-c2ccc3c(n2)CCN(C2CC(C(=O)O)C2)C3)ccc1OCc1ccccc1 (stereo not drawn) [Compound 117, 3-(2-(4-(benzyloxy)-3-methylphenyl)-7,8-dihydro-1,6-naphthyridin-6(5H)-yl)cyclobutanecarboxylic acid] | > 1 |  | 0.1 to 1 | > 1
O=C(O)CCN1CCc2nc(-c3ccc(OCc4cccc(OC(F)(F)F)c4)cc3)ccc2C1 [Compound 151, 3-(2-(4-((3-trifluoromethoxybenzyl)oxy)phenyl)-7,8-dihydro-1,6-naphthyridin-6(5H)-yl)propanoic acid] | < 1 |  | < 0.01 | > 1
O=C(O)CCN1CCc2nc(-c3ccc(OCc4ccc(C(F)(F)F)cc4)cc3)ccc2C1 [Compound 152, 3-(2-(4-((4-trifluoromethylbenzyl)oxy)phenyl)-7,8-dihydro-1,6-naphthyridin-6(5H)-yl)propanoic acid] | > 1 |  | < 0.01 | > 1
O=C(O)CCN1CCc2nc(-c3ccc(OCc4ccc(OC(F)(F)F)cc4)cc3)ccc2C1 [Compound 153, 3-(2-(4-((4-trifluoromethoxybenzyl)oxy)phenyl)-7,8-dihydro-1,6-naphthyridin-6(5H)-yl)propanoic acid] | > 1 |  | 0.1 to 1 | > 1
Cc1ccc(COc2ccc(-c3ccc4c(n3)CCN(CCC(=O)O)C4)cc2)cc1C(F)(F)F [Compound 154, 3-(2-(4-((3-trifluoromethyl-4-(methyl)benzyl)oxy)phenyl)-7,8-dihydro-1,6-naphthyridin-6(5H)-yl)propanoic acid] | > 1 |  | 0.01 to 0.1 | > 1
Cc1ccc(C(F)(F)F)cc1COc1ccc(-c2ccc3c(n2)CCN(CCC(=O)O)C3)cc1 [Compound 158, 3-(2-(4-((2-methyl-5-(trifluoromethyl)benzyl)oxy)phenyl)-7,8-dihydro-1,6-naphthyridin-6(5H)-yl)propanoic acid] | > 1 |  | 0.01 to 0.1 | > 1
O=C(O)CCN1CCc2nc(-c3ccc(OCc4cccc(OC(F)F)c4)cc3)ccc2C1 [Compound 164, 3-(2-(4-((3-difluoromethoxybenzyl)oxy)phenyl)-7,8-dihydro-1,6-naphthyridin-6(5H)-yl)propanoic acid] | < 1 |  | < 0.01 | > 1
Cc1cc(-c2ccc3c(n2)CCN(CCC(=O)O)C3)ccc1OCc1ccc(F)cc1 [Compound 168, 3-(2-(4-((4-fluorobenzyl)oxy)-3-methylphenyl)-7,8-dihydro-1,6-naphthyridin-6(5H)-yl)propanoic acid] | > 1 |  | 0.01 to 0.1 | > 1
Cc1cc(-c2cc3c(cn2)CN(CCC(=O)O)CC3)ccc1OCc1ccccc1 [Compound 171, 3-(6-(4-(benzyloxy)-3-methylphenyl)-3,4-dihydro-2,7-naphthyridin-2(1H)-yl)propanoic acid] | > 1 |  | 0.01 to 0.1 | > 1
O=C(O)CCN1CCc2nc(-c3ccc(OCc4ccc(Cl)cc4)cc3)c(F)cc2C1 [Compound 187, 3-(2-(4-((4-chlorobenzyl)oxy)phenyl)-3-fluoro-7,8-dihydro-1,6-naphthyridin-6(5H)-yl)propanoic acid] | < 1 |  | < 0.01 | > 1
O=C(O)CCN1CCc2nc(-c3ccc(OCc4ccc(F)cc4)cc3)c(F)cc2C1 [Compound 190, 3-(2-(4-((4-fluorobenzyl)oxy)phenyl)-3-fluoro-7,8-dihydro-1,6-naphthyridin-6(5H)-yl)propanoic acid] | < 1 |  | < 0.01 | > 1
O=C(O)CCN1CCc2nc(-c3ccc(OCc4ccc(C(F)(F)F)cc4)cc3)c(F)cc2C1 [Compound 191, 3-(2-(4-((4-trifluoromethylbenzyl)oxy)phenyl)-3-fluoro-7,8-dihydro-1,6-naphthyridin-6(5H)-yl)propanoic acid] | < 1 |  | < 0.01 | > 1
O=C(O)CCN1CCc2nc(-c3ccc(OCc4cccc(C(F)(F)F)c4)cc3)c(F)cc2C1 [Compound 194, 3-(2-(4-((3-trifluoromethylbenzyl)oxy)phenyl)-3-fluoro-7,8-dihydro-1,6-naphthyridin-6(5H)-yl)propanoic acid] | > 1 |  | < 0.01 | > 1
CCc1cccc(Cl)c1COc1ccc(-c2nc3c(cc2F)CN(CCC(=O)O)CC3)cc1 [Compound 196, 3-(2-(4-((2-chloro-6-ethylbenzyl)oxy)phenyl)-3-fluoro-7,8-dihydro-1,6-naphthyridin-6(5H)-yl)propanoic acid] | > 1 |  | 0.01 to 0.1 | > 1
O=C(O)CCN1CCc2nc(-c3ccc(OCc4cccc(F)c4F)cc3)c(F)cc2C1 [Compound 197] | < 1 |  | < 0.01 | > 1
O=C(O)CCN1CCc2nc(-c3ccc(OCc4ccc(F)c(F)c4)cc3)c(F)cc2C1 [Compound 198, 3-(2-(4-((3,4-difluorobenzyl)oxy)phenyl)-3-fluoro-7,8-dihydro-1,6-naphthyridin-6(5H)-yl)propanoic acid] | < 1 |  | < 0.01 | > 1
CC(CC(=O)O)N1Cc2ccc(-c3ccc(OCc4c(Cl)cccc4Cl)cc3)nc2C1 (stereo not drawn) [Compound 201, 3-(2-(4-((2,6-dichlorobenzyl)oxy)phenyl)-5H-pyrrolo[3,4-b]pyridin-6(7H)-yl)butanoic acid] | > 1 |  | 1 to 10 | > 1
O=C(O)CCN1Cc2ccc(-c3cccc(OCc4cccc(F)c4)c3)nc2C1 [Compound 203, 3-(2-(3-((3-fluorobenzyl)oxy)phenyl)-5H-pyrrolo[3,4-b]pyridin-6(7H)-yl)propanoic acid] | > 1 |  | 1 to 10 | > 1
O=C(O)CCN1Cc2ccc(-c3cccc(OCc4ccccc4)c3)nc2C1 [Compound 204, 3-(2-(3-(benzyloxy)phenyl)-5H-pyrrolo[3,4-b]pyridin-6(7H)-yl)propanoic acid] | > 1 |  | 1 to 10 | > 1
O=C(O)CCN1CCc2ncc(-c3ccc(OCc4ccccc4)cc3)nc2C1 [Compound 221, 3-(3-(4-(benzyloxy)phenyl)-7,8-dihydropyrido[3,4-b]pyrazin-6(5H)-yl)propanoic acid] | > 1 |  | 1 to 10 | > 1
O=C(O)CCN1CCc2ncc(-c3ccc(OCc4cccc(Cl)c4)cc3)nc2C1 [Compound 222, 3-(3-(4-((3-chlorobenzyl)oxy)phenyl)-7,8-dihydropyrido[3,4-b]pyrazin-6(5H)-yl)propanoic acid] | > 1 |  | 1 to 10 | > 1
O=C(O)CCN1CCc2ncc(-c3ccc(OCc4ccc(Cl)cc4)cc3)nc2C1 [Compound 223, 3-(3-(4-((4-chlorobenzyl)oxy)phenyl)-7,8-dihydropyrido[3,4-b]pyrazin-6(5H)-yl)propanoic acid] | > 1 |  | 1 to 10 | > 1
